The target of the experiment is T1, Signal transducer and activator of transcription 1-alpha/beta (Homo sapiens, UniProt P42224).
T1 sequence (P42224 whole entry): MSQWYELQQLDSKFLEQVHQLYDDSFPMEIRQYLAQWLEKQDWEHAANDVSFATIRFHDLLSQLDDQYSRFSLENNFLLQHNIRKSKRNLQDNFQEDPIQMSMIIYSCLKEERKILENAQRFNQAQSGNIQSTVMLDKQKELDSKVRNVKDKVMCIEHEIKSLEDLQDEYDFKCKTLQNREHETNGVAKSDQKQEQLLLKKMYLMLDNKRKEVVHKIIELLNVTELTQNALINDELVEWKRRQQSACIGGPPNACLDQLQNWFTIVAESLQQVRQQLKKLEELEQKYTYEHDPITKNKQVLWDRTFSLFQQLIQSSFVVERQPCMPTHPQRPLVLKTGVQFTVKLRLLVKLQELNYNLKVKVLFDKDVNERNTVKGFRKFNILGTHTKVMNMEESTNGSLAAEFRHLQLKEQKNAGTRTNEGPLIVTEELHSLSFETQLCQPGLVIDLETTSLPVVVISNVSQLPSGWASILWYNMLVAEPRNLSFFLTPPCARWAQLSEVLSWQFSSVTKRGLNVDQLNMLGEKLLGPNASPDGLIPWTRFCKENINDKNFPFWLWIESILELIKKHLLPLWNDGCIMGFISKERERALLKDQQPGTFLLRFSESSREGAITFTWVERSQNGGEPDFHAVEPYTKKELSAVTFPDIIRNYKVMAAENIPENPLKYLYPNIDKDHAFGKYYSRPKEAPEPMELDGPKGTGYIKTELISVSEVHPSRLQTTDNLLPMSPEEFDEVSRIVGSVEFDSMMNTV
The experiment is described as follows: Bioassay Evaluation: Compound samples (in 3-5 mg quantities) were evaluated in a variety of assays. All compound submissions were fully characterized (1H, 13C, IR, HRMS), satisfied purity criteria (≥95% LC/MC, ELS). It is filed as single protein.

The molecule `COc1ccc(C2=Nn3c(nnc3-c3[nH]nc4c3CCC4)SC2)cc1` had a 50% inhibitory concentration (IC50) of 40.6 µM.

The values are drawn from ChEMBL document CHEMBL5727654 (2020).
